Tests used:
[1] = Highest frequency of moderate liver toxicity observed during clinical trials, expressed as a percentage. [column '% BIOL' in source]; details: human
[2] = Highest frequency of acute liver toxicity observed during clinical trials, expressed as a percentage. [column '% AIGUE' in source]; details: human
[3] = human, serum
[4] = human, serum; remark: listed apart in the source
[5] = human
[6] = human; remark: listed apart in the source
[7] = human; remark: listed apart in the source
[8] = human, serum, 4383 h
[9] = human; remark: listed apart in the source
[10] = human; remark: listed apart in the source
[11] = human; remark: listed apart in the source
[12] = human; remark: listed apart in the source
[13] = human; remark: listed apart in the source
[14] = human; remark: listed apart in the source
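Wherever Hepatotoxicity (association with vascular disease) is given: count of indexed literature references reporting vascular liver injury in humans, e.g. peliosis hepatitis, hepatic veno-occlusive disease or Budd-Chiari syndrome.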
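Wherever Hepatotoxicity (benign tumour) is given: value is a count of indexed literature references citing a benign tumour confirmed by histopathology.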
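Wherever Hepatotoxicity (choleostasis) is given: human cholestatic liver injury, shown by histopathology or by peak ALT or AST elevation over alkaline phosphatase ratio below 2, value counts indexed literature reports.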
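Wherever Hepatotoxicity (chronic liver disease) is given: chronic liver injury confirmed by histopathology or persistently raised serum aminotransferase activity beyond 6 months, value given as the count of indexed literature references.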
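Wherever Hepatotoxicity (cirrhosis) is given: value is a count of indexed literature references reporting cirrhosis confirmed by histopathology.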
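Wherever Hepatotoxicity (cytolytic) is given: human cytolytic liver injury, shown by histopathology or by a ratio above 5 of peak ALT or AST elevation to alkaline phosphatase elevation, value counts indexed references.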
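Wherever Hepatotoxicity (granulomatous hepatitis) is given: value is a count of indexed literature references reporting granulomatous liver disease confirmed by histopathology.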
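Wherever Hepatotoxicity (malignant tumour) is given: malignant tumour confirmed by histopathology, value gives the count of indexed literature references reporting it.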
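Wherever Hepatotoxicity (severe hepatitis) is given: human clinical data: severe hepatitis, meaning potentially life-threatening liver failure or clinically observed cases, the value counts how many indexed literature references report it.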
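Wherever Hepatotoxicity (steatosis) is given: steatosis confirmed by histopathology, value is the count of indexed references.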

CC1(C)[C@@H](OC(=O)CCC(=O)O)CC[C@]2(C)[C@H]3C(=O)C=C4[C@@H]5C[C@@](C)(C(=O)O)CC[C@]5(C)CC[C@@]4(C)[C@]3(C)CC[C@@H]12 [CARBENOXOLONE]
Hepatotoxicity (moderate) [1]: 0%
Hepatotoxicity (acute) [2]: 0%
Hepatotoxicity (moderate) [3]: 2
Hepatotoxicity (acute) [4]: 0
Hepatotoxicity (cytolytic) [5]: 0
Hepatotoxicity (choleostasis) [6]: 0
Hepatotoxicity (severe hepatitis) [7]: 0
Hepatotoxicity (chronic liver disease) [8]: 0
Hepatotoxicity (cirrhosis) [9]: 0
Hepatotoxicity (granulomatous hepatitis) [10]: 0
Hepatotoxicity (association with vascular disease) [11]: 0
Hepatotoxicity (steatosis) [12]: 0
Hepatotoxicity (malignant tumour) [13]: 0
Hepatotoxicity (benign tumour) [14]: 0

Cc1nc(C)c2c(n1)N(Cc1ccc(-c3ccccc3-c3nnn[nH]3)cc1)C(=O)CC2 [TASOSARTAN]
Hepatotoxicity (moderate) [1]: 1.9%
Hepatotoxicity (acute) [2]: 0%
Hepatotoxicity (moderate) [3]: 2
Hepatotoxicity (acute) [4]: 0
Hepatotoxicity (cytolytic) [5]: 0
Hepatotoxicity (choleostasis) [6]: 0
Hepatotoxicity (severe hepatitis) [7]: 0
Hepatotoxicity (chronic liver disease) [8]: 0
Hepatotoxicity (cirrhosis) [9]: 0
Hepatotoxicity (granulomatous hepatitis) [10]: 0
Hepatotoxicity (association with vascular disease) [11]: 0
Hepatotoxicity (steatosis) [12]: 0
Hepatotoxicity (malignant tumour) [13]: 0
Hepatotoxicity (benign tumour) [14]: 0

CCC[C@@H]1C[C@@H](C(=O)N[C@@H]([C@H]2O[C@H](SC)[C@H](O)[C@@H](O)[C@H]2O)[C@@H](C)O)N(C)C1 [LINCOMYCIN]
Hepatotoxicity (moderate) [1]: 0%
Hepatotoxicity (acute) [2]: 0%
Hepatotoxicity (moderate) [3]: 2
Hepatotoxicity (acute) [4]: 0
Hepatotoxicity (cytolytic) [5]: 0
Hepatotoxicity (choleostasis) [6]: 0
Hepatotoxicity (severe hepatitis) [7]: 0
Hepatotoxicity (chronic liver disease) [8]: 0
Hepatotoxicity (cirrhosis) [9]: 0
Hepatotoxicity (granulomatous hepatitis) [10]: 0
Hepatotoxicity (association with vascular disease) [11]: 0
Hepatotoxicity (steatosis) [12]: 0
Hepatotoxicity (malignant tumour) [13]: 0
Hepatotoxicity (benign tumour) [14]: 0

NC(=O)N1C(=O)/C(=C(\O)c2cccs2)c2cc(Cl)ccc21 [TENIDAP]
Hepatotoxicity (moderate) [1]: 18.8%
Hepatotoxicity (acute) [2]: 0.8%
Hepatotoxicity (moderate) [3]: 3
Hepatotoxicity (acute) [4]: 2
Hepatotoxicity (cytolytic) [5]: 1
Hepatotoxicity (choleostasis) [6]: 1
Hepatotoxicity (severe hepatitis) [7]: 0
Hepatotoxicity (chronic liver disease) [8]: 0
Hepatotoxicity (cirrhosis) [9]: 0
Hepatotoxicity (granulomatous hepatitis) [10]: 0
Hepatotoxicity (association with vascular disease) [11]: 0
Hepatotoxicity (steatosis) [12]: 0
Hepatotoxicity (malignant tumour) [13]: 0
Hepatotoxicity (benign tumour) [14]: 0

Nc1ncnc2c1ncn2CCOCP(=O)(O)O [ADEFOVIR]
Hepatotoxicity (moderate) [1]: 33.3%
Hepatotoxicity (acute) [2]: 7.4%
Hepatotoxicity (moderate) [3]: 2
Hepatotoxicity (acute) [4]: 1
Hepatotoxicity (cytolytic) [5]: 1
Hepatotoxicity (choleostasis) [6]: 0
Hepatotoxicity (severe hepatitis) [7]: 0
Hepatotoxicity (chronic liver disease) [8]: 0
Hepatotoxicity (cirrhosis) [9]: 0
Hepatotoxicity (granulomatous hepatitis) [10]: 0
Hepatotoxicity (association with vascular disease) [11]: 0
Hepatotoxicity (steatosis) [12]: 0
Hepatotoxicity (malignant tumour) [13]: 0
Hepatotoxicity (benign tumour) [14]: 0

Cc1c(C)c2ccc(OCCCN3CCN(Cc4ccc(Cl)cc4)CC3)cc2oc1=O
Hepatotoxicity (moderate) [1]: 2%
Hepatotoxicity (acute) [2]: 0%
Hepatotoxicity (moderate) [3]: 1
Hepatotoxicity (acute) [4]: 0
Hepatotoxicity (cytolytic) [5]: 0
Hepatotoxicity (choleostasis) [6]: 0
Hepatotoxicity (severe hepatitis) [7]: 0
Hepatotoxicity (chronic liver disease) [8]: 0
Hepatotoxicity (cirrhosis) [9]: 0
Hepatotoxicity (granulomatous hepatitis) [10]: 0
Hepatotoxicity (association with vascular disease) [11]: 0
Hepatotoxicity (steatosis) [12]: 0
Hepatotoxicity (malignant tumour) [13]: 0
Hepatotoxicity (benign tumour) [14]: 0

Clc1cccc(Cl)c1N=C1NCCN1 [CLONIDINE]
Hepatotoxicity (moderate) ([1]; Liver): 12.5%
Hepatotoxicity (acute) ([2]; Liver): 0%
Hepatotoxicity (moderate) [3]: 1
Hepatotoxicity (acute) [4]: 0
Hepatotoxicity (cytolytic) ([5]; Liver): 0
Hepatotoxicity (choleostasis) ([6]; Liver): 0
Hepatotoxicity (severe hepatitis) ([7]; Liver): 0
Hepatotoxicity (chronic liver disease) [8]: 0
Hepatotoxicity (cirrhosis) [9]: 0
Hepatotoxicity (granulomatous hepatitis) ([10]; Liver): 0
Hepatotoxicity (association with vascular disease) [11]: 0
Hepatotoxicity (steatosis) [12]: 0
Hepatotoxicity (malignant tumour) [13]: 0
Hepatotoxicity (benign tumour) [14]: 0

O=C(O)[C@@H](S)[C@@H](S)C(=O)O
Hepatotoxicity (moderate) [1]: 56.7%
Hepatotoxicity (acute) [2]: 0%
Hepatotoxicity (moderate) [3]: 3
Hepatotoxicity (acute) [4]: 0
Hepatotoxicity (cytolytic) [5]: 0
Hepatotoxicity (choleostasis) [6]: 0
Hepatotoxicity (severe hepatitis) [7]: 0
Hepatotoxicity (chronic liver disease) [8]: 0
Hepatotoxicity (cirrhosis) [9]: 0
Hepatotoxicity (granulomatous hepatitis) [10]: 0
Hepatotoxicity (association with vascular disease) [11]: 0
Hepatotoxicity (steatosis) [12]: 0
Hepatotoxicity (malignant tumour) [13]: 0
Hepatotoxicity (benign tumour) [14]: 0

CCCCCOC(=O)Nc1nc(=O)n([C@@H]2O[C@H](C)[C@@H](O)[C@H]2O)cc1F [CAPECITABINE]
Hepatotoxicity (moderate) [1]: 61.8%
Hepatotoxicity (acute) [2]: 0%
Hepatotoxicity (moderate) [3]: 1
Hepatotoxicity (acute) [4]: 0
Hepatotoxicity (cytolytic) [5]: 0
Hepatotoxicity (choleostasis) [6]: 0
Hepatotoxicity (severe hepatitis) [7]: 0
Hepatotoxicity (chronic liver disease) [8]: 0
Hepatotoxicity (cirrhosis) [9]: 0
Hepatotoxicity (granulomatous hepatitis) [10]: 0
Hepatotoxicity (association with vascular disease) [11]: 0
Hepatotoxicity (steatosis) [12]: 0
Hepatotoxicity (malignant tumour) [13]: 0
Hepatotoxicity (benign tumour) [14]: 0

N[C@H](C(=O)O)[C@@H]1CC(Cl)=NO1 [ACIVICIN]
Hepatotoxicity (moderate) [1]: 62%
Hepatotoxicity (acute) [2]: 0%
Hepatotoxicity (moderate) [3]: 3
Hepatotoxicity (acute) [4]: 0
Hepatotoxicity (cytolytic) [5]: 0
Hepatotoxicity (choleostasis) [6]: 0
Hepatotoxicity (severe hepatitis) [7]: 0
Hepatotoxicity (chronic liver disease) [8]: 0
Hepatotoxicity (cirrhosis) [9]: 0
Hepatotoxicity (granulomatous hepatitis) [10]: 0
Hepatotoxicity (association with vascular disease) [11]: 0
Hepatotoxicity (steatosis) [12]: 0
Hepatotoxicity (malignant tumour) [13]: 0
Hepatotoxicity (benign tumour) [14]: 0

C[C@H]1O[C@@H](O[C@H]2[C@@H](O)C[C@H](O[C@H]3[C@@H](O)C[C@H](O[C@H]4CC[C@@]5(C)[C@H](CC[C@@H]6[C@@H]5C[C@@H](O)[C@]5(C)[C@@H](C7=CC(=O)OC7)CC[C@]65O)C4)O[C@@H]3C)O[C@@H]2C)C[C@H](O)[C@@H]1O [DIGOXIN]
Hepatotoxicity (moderate) [1]: 8.3%
Hepatotoxicity (acute) [2]: 0%
Hepatotoxicity (moderate) [3]: 1
Hepatotoxicity (acute) [4]: 0
Hepatotoxicity (cytolytic) [5]: 0
Hepatotoxicity (choleostasis) [6]: 0
Hepatotoxicity (severe hepatitis) [7]: 0
Hepatotoxicity (chronic liver disease) [8]: 0
Hepatotoxicity (cirrhosis) [9]: 0
Hepatotoxicity (granulomatous hepatitis) [10]: 0
Hepatotoxicity (association with vascular disease) [11]: 0
Hepatotoxicity (steatosis) [12]: 0
Hepatotoxicity (malignant tumour) [13]: 0
Hepatotoxicity (benign tumour) [14]: 0

ADALIMUMAB
Hepatotoxicity (moderate) [1]: 12.1%
Hepatotoxicity (acute) [2]: 0%
Hepatotoxicity (moderate) [3]: 1
Hepatotoxicity (acute) [4]: 0
Hepatotoxicity (cytolytic) [5]: 0
Hepatotoxicity (choleostasis) [6]: 0
Hepatotoxicity (severe hepatitis) [7]: 0
Hepatotoxicity (chronic liver disease) [8]: 0
Hepatotoxicity (cirrhosis) [9]: 0
Hepatotoxicity (granulomatous hepatitis) [10]: 0
Hepatotoxicity (association with vascular disease) [11]: 0
Hepatotoxicity (steatosis) [12]: 0
Hepatotoxicity (malignant tumour) [13]: 0
Hepatotoxicity (benign tumour) [14]: 0

From ChEMBL document CHEMBL3137667, “[Drug-induced liver injury; fourteenth updated edition of the bibliographic database of liver injuries and related drugs]” (Gastroenterol Clin Biol, 2004)
